The source of these data is patent US20200299671A1, “IMMOBILIZED MULTI-ENZYMATIC HALOGENATION SYSTEM” (priority 2019, published 2020).

SMILES strings stand for the structures.

The target in assay [1] is T1, PltM (Pseudomonas protegens, UniProt Q4KCZ3). As to the kind of experiment: In vitro PltM halogenation assay with a single halide salt, substrate profile (Assay 1a-1d), LC-MS. Type of assay: biochemical. The protocol: The halogenation assays were carried out similarly to a recently described procedure. For substrate profile determination (Assay 1), 100 μL reactions were carried out in 30 mM sodium phosphate pH 7.4. As a halide source, 200 mM of either NaF (Assay 1a), NaCl (Assay 1b), NaBr (Assay 1c), or NaI (Assay 1d) was used. To ensure that PltM is incapable of fluorinating, an additional 200 μL reaction with 300 mM NaF was run. A 200 μL reaction with 400 mM NaBr was also run to ensure no additional bromination reaction occurred. Each reaction also contained a specified substrate (0.5 mM), FAD (0.2 mM), NADPH (5 mM), PltM (5.5 μM), and SsuE (5.0 μM). The reactions were initiated by adding NADPH under N2. The reaction tubes were tightly closed to avoid contact with air. The reaction mixtures were incubated at 25° C. for 3 h prior to extraction with EtOAc (4×100 μL). The organic layer was dried by a gentle flow of air, and the residue was dissolved in MeOH to prepare 1-10 μg/mL samples for LC-MS analysis.
T1 sequence (Q4KCZ3 entry or part of it): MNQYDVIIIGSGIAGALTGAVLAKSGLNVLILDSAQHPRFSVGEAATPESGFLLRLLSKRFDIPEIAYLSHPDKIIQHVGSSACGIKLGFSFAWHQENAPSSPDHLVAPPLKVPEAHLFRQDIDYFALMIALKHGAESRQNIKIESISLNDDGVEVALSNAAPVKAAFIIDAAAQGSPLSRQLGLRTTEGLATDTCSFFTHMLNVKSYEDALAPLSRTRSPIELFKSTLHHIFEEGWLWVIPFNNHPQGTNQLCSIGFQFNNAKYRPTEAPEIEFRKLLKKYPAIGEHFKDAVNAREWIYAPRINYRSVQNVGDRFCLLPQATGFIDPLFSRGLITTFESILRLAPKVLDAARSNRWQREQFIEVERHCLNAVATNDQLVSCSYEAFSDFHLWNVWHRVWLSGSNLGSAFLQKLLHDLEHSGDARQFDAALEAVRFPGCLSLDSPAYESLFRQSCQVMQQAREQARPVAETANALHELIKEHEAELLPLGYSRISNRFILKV
The halogenation reaction products were analyzed by HPLC or LC-MS by injecting 10 μL of each sample. The compounds were separated by Reversed-phase HPLC at the flow rate of 0.2 mL/min by using the following program: eluent A=H2O; eluent B=MeCN; gradient=2% B for 5 min, increase to 100% B over a 30 min period, stay at 100% B for 9 min, decrease to 2% B over a 1 min period, and re-equilibrate the column at 2% B for 30 min.
For HPLC analysis, the molecules were observed by absorbance at λ=275 nm as described above. As necessary, the following mass spectrometer was operated in negative and positive modes with the following parameters: For negative mode, mass range, 80-600 m/z in profile mode; temperature, 550° C. and ion spray voltage floating, −4500 V, and for positive mode, mass range, 80-600 m/z in profile mode; temperature, 550° C. and ion spray voltage floating, 4500 V. The presence of each compound was analyzed by extracted ion chromatograph (XIC) with the expected mass ±0.05 Da for Assay 1 and Assay 2 and ±0.005 Da for Assay 3 (FIGS. 2A-C, 8-13, and 17-37; Tables 3-4 and 7).

In assay [2] the target is T1, PltM. Kind of assay: X-ray crystallography of PltM crystals soaked with FAD and substrates. As to conditions: crystals soaked with 0.5 mM FAD and substrate. How it is done: PltM crystals were obtained by the hanging drop method with drops containing 0.5 μL of PltM (40 mg/mL) and 0.5 μL of the reservoir solution (0.1 M Tris pH 8, 0.2 M NaCl, 0.1 M CaCl2) and 12-17% PEG 8000). The drops were equilibrated against 0.5 mL of reservoir solution at 21° C. Long rod-shaped crystals appeared after 1-3 days. The crystals were cryoprotected by a gradual transfer to the solution with the same composition as the reservoir solution, additionally containing 20% glycerol. The crystals were then frozen by a rapid immersion into liquid nitrogen.
However, PltM contains eight Cys residues, which, if accessible, would react with Hg salts. […] The structure was determined by the single anomalous dispersion (SAD) method from the EMP derivative data set (using the wavelength of 1.0 Å), as follows. […] This Hg substructure was used as an input in Autosolve in PHENIX suite to obtain initial phases, which were bootstrapped by difference Fourier analysis to yield the total of 33 Hg atoms and a readily interpretable electron density map, with the figure of merit of 0.71 after density modification. […]
PltM crystals were soaked in the reservoir solution used to obtained native PltM crystals, with additional 0.5 mM of FAD. […] FAD was readily discernable in the omit Fo-Fc map. […]

As for `Oc1cc(O)cc(O)c1` [Compound 1, phloroglucinol], the “bromination by PltM (products identified by LC-MS)” value in assay [1] (NaBr as halide source (Assay 1c)) was “only mono-halogenation”. Besides, the “chlorination by PltM (products identified by LC-MS)” value in assay [1] (NaCl as halide source (Assay 1b)) was “Mono- and dihalogenation”. In addition, the “fluorination by PltM (products identified by LC-MS)” value in assay [1] (NaF as halide source (Assay 1a)) is recorded as “not fluorinated”. Further, the “iodination by PltM (products identified by LC-MS)” value in assay [1] (NaI as halide source (Assay 1d)) is “Mono- and dihalogenation”. Besides, the “omit Fo-Fc electron density of substrate in soaked PltM crystals” value in assay [2] is on record as “yielded omit Fo-Fc electron density”.
